Ten compounds from patent publication US11472806B2, “Substituted heterocyclic compounds as allosteric modulators of group II metabotropic glutamate receptors” (Domain Therapeutics, priority 2017, dated 2022) can be followed below.

Molecules are shown by their SMILES. Structures can show the parent of a compound that is named as a salt.

The target in one data set is T1, human mGluR3 (hmGluR3) (Homo sapiens, UniProt Q14832).
T1 construct: expressed in transfected cells; host or cells: HEK-293 cells, transient co-transfection by electroporation
T1 sequence (Q14832 23-879): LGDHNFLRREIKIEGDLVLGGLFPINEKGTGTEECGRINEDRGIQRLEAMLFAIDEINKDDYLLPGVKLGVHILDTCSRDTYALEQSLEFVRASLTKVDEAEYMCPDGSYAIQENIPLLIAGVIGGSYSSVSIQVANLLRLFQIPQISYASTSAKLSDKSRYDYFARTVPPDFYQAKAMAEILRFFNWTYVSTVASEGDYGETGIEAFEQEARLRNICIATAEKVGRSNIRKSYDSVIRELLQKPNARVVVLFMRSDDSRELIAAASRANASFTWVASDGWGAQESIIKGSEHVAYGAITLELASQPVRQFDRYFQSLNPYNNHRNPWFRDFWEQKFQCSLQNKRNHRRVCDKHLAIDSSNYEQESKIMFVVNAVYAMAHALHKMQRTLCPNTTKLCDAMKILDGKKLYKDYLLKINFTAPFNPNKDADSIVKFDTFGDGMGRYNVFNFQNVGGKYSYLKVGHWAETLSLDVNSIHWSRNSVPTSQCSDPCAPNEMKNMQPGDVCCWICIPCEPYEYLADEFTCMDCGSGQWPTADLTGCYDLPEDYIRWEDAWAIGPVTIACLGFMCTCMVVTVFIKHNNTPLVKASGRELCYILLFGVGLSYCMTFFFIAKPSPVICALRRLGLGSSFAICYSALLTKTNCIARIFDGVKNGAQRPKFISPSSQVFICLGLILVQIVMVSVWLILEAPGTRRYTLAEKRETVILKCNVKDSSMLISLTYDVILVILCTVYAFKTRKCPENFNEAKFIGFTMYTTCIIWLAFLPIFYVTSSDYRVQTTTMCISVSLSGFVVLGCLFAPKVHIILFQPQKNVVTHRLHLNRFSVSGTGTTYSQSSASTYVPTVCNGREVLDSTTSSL
Kind of data set: Human mGluR3 positive allosteric modulator evaluation using Ca++ functional assay. The conditions noted are these: hmGluR3 transiently over-expressed in HEK-293 cells; cells stimulated by an EC50 glutamate concentration; intracellular Ca2+ (Fluo4AM, FLIPR Tetra). In kind it is cell-based. On the procedure:
Example 89: Human mGluR3 Positive Allosteric Modulator Evaluation Using Ca++ Functional Assay
Compounds of the present invention were tested successively for their agonist and positive allosteric modulator activities on human mGluR3 (hmGluR3) transiently over-expressed in HEK-293 cells. Compounds exert agonist activity if they are able to activate hmGluR3 by themselves, i.e., in absence of the endogenous agonist glutamate; and they exert positive allosteric modulator activity if they increase the action of the endogenous agonist glutamate.
Cell Culture and Transfection:
HEK-293 cells were maintained in Modified Eagle's Medium supplemented with 10% Foetal Calf Serum, 1% Penicillin/Streptomycin and 1% non-essential amino acids at 37° C./5% CO2. Cells were co-transfected by electroporation with four DNA plasmids encoding hmGluR3, a chimeric G protein allowing redirection of the activation signal toward intracellular calcium pathway, and two glutamate transporters so as to decrease extracellular glutamate levels and avoid receptor desensitization (Brabet I et al., Neuropharmacology 37(8), 1043-51, 1998). After transfection, cells were seeded in 75 cm^2 culture flasks, and cultured for 24 h.
Calcium Assa EC50 determination:
Receptor activity was detected by changes in intracellular calcium measured using the fluorescent Ca^2+ sensitive dye, Fluo4AM (Molecular Probes).
The day of the assay, medium was aspirated and replaced during 3 hrs by freshly prepared buffer B (HBSS 1×, Hepes 20 mM, MgSO4-7H2O 1 mM, Na2CO3 3.3 mM, CaCl2-2H2O 1.3 mM, 0.5% BSA, Probenecid 2.5 mM). Then, cells were loaded at 37° C./5% CO2 for 1.5 hrs with buffer B containing 1 μM Fluo4AM, 0.1 mg/mL Pluronic Acid, 7 μg/mL Glutamate Pyruvate Transaminase and 2 mM sodium pyruvate. Afterwards cells were washed with buffer B. Cells were then detached from the 75 cm^2 culture flasks with Accutase® (5 min incubation at 37° C.), centrifuged (5 min at 840 rpm), resuspended in buffer B and finally seeded at a density of 30,000 cells/well in black-walled clear-bottom 384-well plates. Addition of compounds on cells and intracellular Ca^2+ measurements (excitation 485 nm, emission 525 nm) were performed by the fluorescence microplate reader FLIPR Tetra (Molecular Devices).
Agonist and positive allosteric modulator activities of compounds were consecutively evaluated on the same cells plate. Agonist activity was first tested during 10 min with the addition of compound alone on the cells. Then, the cells were stimulated by an EC50 glutamate concentration and fluorescence was recorded for additional 3 min. EC50 glutamate concentration is the concentration giving 50% of the maximal glutamate response. Agonist and/or positive allosteric modulator activity(ies) were evaluated in comparison to basal signal or signal evoked by EC50 glutamate concentration alone, respectively.
For potency determination, a dose-response test was performed using 20 concentrations of each compound of the invention. Dose-response curves were fitted using the sigmoïdal dose-response (variable slope) analysis in XLfit Scientific Curve Fitting for Excel (IDBS). EC50 of agonist/EC50 of positive allosteric modulator activity(ies) were calculated. Dose-response experiments were all performed in duplicate, two times independently.
In the case of `COCn1cc2c(n1)C(=O)N(C)Cc1ccc(-c3cccnc3C)cc1-2` [Example 65, 2-Methoxymethyl-5-methyl-9-(2-methyl-pyridin-3-yl)-5,6-dihydro-2H-2,3,5-triaza-benzo[e]azulen-4-one], the EC50 was in the range of 100 to 1000 nM.
Same read-out and setting: with `COCn1cc2c(n1)C(=O)N(C)Cc1ccc(-c3ccc(F)nc3)cc1-2` [Example 66, 2-Methoxymethyl-5-methyl-9-(6-fluoro-pyridin-3-yl)-5,6-dihydro-2H-2,3,5-triaza-benzo[e]azulen-4-one] the figure was 100 to 1000 nM.
For the compound `Cc1ncccc1-c1ccc2c(c1)-c1cn(C)nc1C(=O)N(C)C2` [Example 68, 2,5-Dimethyl-9-(2-methyl-pyridin-3-yl)-5,6-dihydro-2H-2,3,5-triaza-benzo[e]azulen-4-one], the EC50 was in the range of 1000 to 10000 nM.
Same read-out and setting: with `COCCn1cc2c(n1)C(=O)N(C)Cc1ccc(-c3cccnc3C)cc1-2` [Example 72, 2-(2-Methoxy-ethyl)-5-methyl-9-(2-methyl-pyridin-3-yl)-5,6-dihydro-2H-2,3,5-triaza-benzo[e]azulen-4-one] the figure was 1000 to 10000 nM; with `COCn1cc2c(n1)C(=O)N(C)C1(CC1)c1ccc(-c3ccc(F)cn3)cc1-2` [Example 76, 2-(Methoxymethyl)-5-methyl-9-(5-fluoro-pyridin-2-yl)-2H-spiro[benzo[c]pyrazolo[4,3-e]azepine-6,1′-cyclopropan]-4(5H)-one], below 100 nM.

Test system in the next data set: not given
Experiment: not given
Details: not given
On to `Cc1ncccc1-c1cnc2c(c1)-n1cccc1C(=O)N(C)C2` (as salt: hydrochloride) [Example 6, 5-Methyl-9-(2-methyl-pyridin-3-yl)-5,6-dihydro-5,7,10b-triaza-benzo[e]azulen-4-one, dihydrochloride], for which the melting point is above 250 °C.
The same measure, in the same setting: with `Cc1ncccc1-c1cnc2c(n1)-n1cccc1C(=O)N(C)C2` (as salt: hydrochloride) [Example 7, 5-Methyl-9-(2-methyl-pyridin-3-yl)-5,6-dihydro-5,7,10,10b-tetraaza-benzo[e]azulen-4-one, dihydrochloride] the figure was above 250 °C.
On the same count and under the same terms, with `Cc1ncccc1-c1cc2c(nn1)CN(C)C(=O)c1cccn1-2` (as salt: hydrochloride) [Example 8, 5-Methyl-9-(2-methyl-pyridin-3-yl)-5,6-dihydro-5,7,8,10b-tetraaza-benzo[e]azulen-4-one, dihydrochloride] the figure was above 250 °C.
The same measure, in the same setting: the result for `Cc1ncccc1-c1ccc2c(c1)-c1ccccc1C(=O)N(C)C21CC1` (as salt: hydrochloride) [Example 21, 10-(2-Methyl-pyridin-3-yl)-6-methyl-6,7-dihydro-spiro[dibenzo[c,e]azepine-7,1′-cyclopropan]-5-one, hydrochloride] reads above 250 °C; that for `COCn1cc2c(n1)C(=O)N(C)C1(CC1)c1ccc(-c3ccc(F)nc3)cc1-2` [Example 75, 2-(Methoxymethyl)-5-methyl-9-(6-fluoro-pyridin-3-yl)-2H-spiro[benzo[c]pyrazolo[4,3-e]azepine-6,1′-cyclopropan]-4(5H)-one], 198 to 200 °C.
`COCn1cc2c(n1)C(=O)N(C)C1(CC1)c1ccc(-c3ccc(F)cn3)cc1-2` [Example 76, 2-(Methoxymethyl)-5-methyl-9-(5-fluoro-pyridin-2-yl)-2H-spiro[benzo[c]pyrazolo[4,3-e]azepine-6,1′-cyclopropan]-4(5H)-one] returned a melting point of 219 to 223 °C.

One may read the EC50 as the midpoint of the concentration-response curve. By melting point is commonly meant the temperature, or range, at which the solid turns liquid.
